Among the data in patent publication US20240383915A1, “OXAZEPINE COMPOUNDS AND USES THEREOF IN THE TREATMENT OF CANCER” (Genentech, Inc., priority 2021, published 2024) are IC50 values, retold here.

Broadly, the IC50 is the point on the concentration scale where inhibition reaches its midpoint.

For test [1], the target named is KRas(G12V) (Homo sapiens (Human), UniProt P01116, G12V). Briefly: KRas(G12V) GDP HTRF (BODIPY-GDP exchange TR-FRET). The test is classed as biochemical.
Test [2] deals with KRas (Homo sapiens (Human), UniProt P01116). Briefly: KRas GDP HTRF (BODIPY-GDP exchange TR-FRET). Type of test: biochemical. A digest of the protocol: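 Inhibition of SOS1-mediated exchange of BODIPY-GDP on KRAS G12D, started with 3 nM recombinant human SOS1 and 300 nM BODIPY-GDP and read after 60 min. TR-FRET excitation 337 nm, ratio 520/490 nm ×10,000. IC50 from 4-parameter Hill fit of normalized data.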
For orientation: TR-FRET usually uses a lanthanide donor and a delayed reading to cut background.

In test [3] the test system is SW480 cells. Put plainly: SW480 proliferation assay. Type of test: cell-based. The following applies: Homo sapiens, SW480, SW480; read-out: SW480 Prolif IC50 (G12V).
Test [4] deals with PC-9 cells. Briefly: PC9 proliferation assay. Type of test: cell-based, human. The conditions noted are these: Homo sapiens, PC-9, PC9; read-out: PC9 Prolif IC50 (G12V).

KRas, sequence (P01116-2 other isoform, or with tags, fused parts or gaps): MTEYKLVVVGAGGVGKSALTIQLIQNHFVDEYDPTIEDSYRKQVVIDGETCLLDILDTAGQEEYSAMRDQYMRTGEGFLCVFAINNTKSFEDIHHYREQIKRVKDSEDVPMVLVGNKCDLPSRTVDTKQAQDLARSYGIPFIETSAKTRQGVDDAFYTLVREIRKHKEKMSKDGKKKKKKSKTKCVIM
KRas(G12V), sequence (P01116-2 other isoform, or with tags, fused parts or gaps G12V): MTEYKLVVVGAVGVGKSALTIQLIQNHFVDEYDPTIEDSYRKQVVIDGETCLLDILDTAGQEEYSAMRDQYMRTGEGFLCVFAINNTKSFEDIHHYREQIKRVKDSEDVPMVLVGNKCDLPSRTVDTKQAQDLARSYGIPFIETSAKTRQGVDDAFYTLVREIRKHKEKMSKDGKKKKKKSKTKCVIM

Consider `Cc1cc(N)nc(-c2c(Cl)c3c4c(nc(OC[C@]56CCN5CC(F)(F)C6)nc4c2F)N([C@H](C)c2cncnc2N)CCO3)c1C(F)(F)F` (atropisomer, axis not shown) [Example 82b, 5-((R)-1-((R)-9-(6-amino-4-methyl-3-(trifluoromethyl)pyridin-2-yl)-8-chloro-2-(((R)-3,3-difluoro-1-azabicyclo[3.2.0]heptan-5-yl)methoxy)-10-fluoro-5,6-dihydro-4H-[1,4]oxazepino[5,6,7-de]quinazolin-4-yl)ethyl)pyrimidin-4-amine], for which the IC50 came to 0.12 nM in test [1], 0.224 nM in test [2], 11 nM in test [3] and 7200 nM in test [4].
Take `CCO[C@H]1CN2CCC[C@@]2(COc2nc3c4c(c(Cl)c(-c5nc(N)cc(C)c5C(F)(F)F)c(F)c4n2)OCCN3[C@H](C)c2cccnc2N)C1` (atropisomer, axis not shown; (aS)) [Example 89, 6-((R)-4-((R)-1-(2-aminopyridin-3-yl)ethyl)-8-chloro-2-(((2R,7aS)-2-ethoxytetrahydro-1H-pyrrolizin-7a(5H)-yl)methoxy)-10-fluoro-5,6-dihydro-4H-[1,4]oxazepino[5,6,7-de]quinazolin-9-yl)-4-methyl-5-(trifluoromethyl)pyridin-2-amine]: the IC50 turned out to be 0.075 nM in test [1], 0.17 nM in test [2], 7.2 nM in test [3] and 2400 nM in test [4].
For `C=C1CN2CCC[C@@]2(COc2nc3c4c(c(Cl)c(-c5nc(N)cc(C)c5C(F)(F)F)cc4n2)OCCN3C)C1` [Example 44, (S)-6-(8-chloro-4-methyl-2-((2-methylenetetrahydro-1H-pyrrolizin-7a(5H)-yl)methoxy)-5,6-dihydro-4H-[1,4]oxazepino[5,6,7-de]quinazolin-9-yl)-4-methyl-5-(trifluoromethyl)pyridin-2-amine], the IC50 is 2.7 nM in test [1], 17 nM in test [2], 4100 nM in test [3] and 4800 nM in test [4].
For `Cc1cc(N)nc(-c2c(Cl)c3c4c(nc(N5CC6(COCCN6)C5)nc4c2F)N([C@H](C)c2cccnc2N)CCO3)c1C(F)(F)F` (atropisomer, axis not shown) [Example 90, 6-((R)-4-((R)-1-(2-aminopyridin-3-yl)ethyl)-8-chloro-10-fluoro-2-(8-oxa-2,5-diazaspiro[3.5]nonan-2-yl)-5,6-dihydro-4H-[1,4]oxazepino[5,6,7-de]quinazolin-9-yl)-4-methyl-5-(trifluoromethyl)pyridin-2-amine], the IC50 was found to be 0.22 nM in test [1], 0.99 nM in test [2], 390 nM in test [3] and 6400 nM in test [4].
Consider `Cc1cc(N)nc(-c2c(Cl)c3c4c(nc(OC[C@@]56CCN5CC(F)(F)C6)nc4c2F)N([C@H](C)c2cccnc2N)CCO3)c1C(F)(F)F` (atropisomer, axis not shown) [Example 114a, 6-((R)-4-((R)-1-(2-aminopyridin-3-yl)ethyl)-8-chloro-2-(((S)-3,3-difluoro-1-azabicyclo[3.2.0]heptan-5-yl)methoxy)-10-fluoro-5,6-dihydro-4H-[1,4]oxazepino[5,6,7-de]quinazolin-9-yl)-4-methyl-5-(trifluoromethyl)pyridin-2-amine], for which the IC50 came out at 0.24 nM in test [1], 0.39 nM in test [2], 3.2 nM in test [3] and 7000 nM in test [4].
Take `COCC12COC(COc3nc4c5c(c(Cl)c(-c6nc(N)cc(C)c6C(F)(F)F)c(F)c5n3)OCCN4[C@H](C)c3cccnc3N)(C1)C2` [Example 149, 6-((R)-4-((R)-1-(2-aminopyridin-3-yl)ethyl)-8-chloro-10-fluoro-2-((4-(methoxymethyl)-2-oxabicyclo[2.1.1]hexan-1-yl)methoxy)-5,6-dihydro-4H-[1,4]oxazepino[5,6,7-de]quinazolin-9-yl)-4-methyl-5-(trifluoromethyl)pyridin-2-amine]: the IC50 in test [1] turned out to be 0.21 nM; in test [2] it was 0.78 nM; in test [3], 74 nM; in test [4], 16000 nM.
`C[C@H](c1cccnc1N)N1CCOc2c(Cl)c(-c3cc(O)cc4ccccc34)c(F)c3nc(OC[C@@]45CCCN4C[C@H](F)C5)nc1c23` [Example 119, 4-(4-((R)-1-(2-aminopyridin-3-yl)ethyl)-8-chloro-10-fluoro-2-(((2R,7aS)-2-fluorotetrahydro-1H-pyrrolizin-7a(5H)-yl)methoxy)-5,6-dihydro-4H-[1,4]oxazepino[5,6,7-de]quinazolin-9-yl)naphthalen-2-ol]: the half-inhibitory concentration (IC50) in test [1] was 0.05 nM; in test [2], 0.14 nM; in test [3], 16 nM; in test [4] it was 3000 nM.
`Cc1cc(N)nc(-c2c(Cl)c3c4c(nc(OC[C@]56CCN5CC(F)(F)C6)nc4c2F)N([C@H](C)c2cccnc2N)CCO3)c1C(F)(F)F` (atropisomer, axis not shown) [Example 114b, 6-((R)-4-((R)-1-(2-aminopyridin-3-yl)ethyl)-8-chloro-2-(((R)-3,3-difluoro-1-azabicyclo[3.2.0]heptan-5-yl)methoxy)-10-fluoro-5,6-dihydro-4H-[1,4]oxazepino[5,6,7-de]quinazolin-9-yl)-4-methyl-5-(trifluoromethyl)pyridin-2-amine]: the IC50 was determined as 0.22 nM in test [1], 0.46 nM in test [2], 3 nM in test [3] and 7600 nM in test [4].
As for `Cc1cc(N)nc(-c2c(Cl)c3c4c(nc(OCCN5CCN(C)CC5)nc4c2F)N([C@H](C)c2cccnc2N)CCO3)c1C(F)(F)F` (atropisomer, axis not shown) [Example 135, 6-((R)-4-((R)-1-(2-aminopyridin-3-yl)ethyl)-8-chloro-10-fluoro-2-(2-(4-methylpiperazin-1-yl)ethoxy)-5,6-dihydro-4H-[1,4]oxazepino[5,6,7-de]quinazolin-9-yl)-4-methyl-5-(trifluoromethyl)pyridin-2-amine], the IC50 in test [1] turned out to be 0.08 nM; in test [2], 0.37 nM; in test [3] it was 390 nM; in test [4], 1500 nM.
Consider `Cc1cc(N)nc(-c2c(Cl)c3c4c(nc(OC[C@@]5(C)CC(F)(F)CN5C)nc4c2F)N([C@H](C)c2cccnc2N)CCO3)c1C(F)(F)F` (atropisomer, axis not shown) [Example 122b, 6-((R)-4-((R)-1-(2-aminopyridin-3-yl)ethyl)-8-chloro-2-(((R)-4,4-difluoro-1,2-dimethylpyrrolidin-2-yl)methoxy)-10-fluoro-5,6-dihydro-4H-[1,4]oxazepino[5,6,7-de]quinazolin-9-yl)-4-methyl-5-(trifluoromethyl)pyridin-2-amine], for which the 50% inhibitory concentration (IC50) in test [1] is 0.095 nM; in test [2] it was 0.202 nM; in test [3], 17 nM; in test [4], 9400 nM.
Take `C[C@H](c1cccnc1N)N1CCOc2c(Cl)c(-c3nc(N)cc4ccccc34)c(F)c3nc(OC[C@@]45CCCN4C[C@H](F)C5)nc1c23` (atropisomer, axis not shown; (aS)) [Example 113a, 1-((R)-4-((R)-1-(2-aminopyridin-3-yl)ethyl)-8-chloro-10-fluoro-2-(((2R,7aS)-2-fluorotetrahydro-1H-pyrrolizin-7a(5H)-yl)methoxy)-5,6-dihydro-4H-[1,4]oxazepino[5,6,7-de]quinazolin-9-yl)isoquinolin-3-amine]: the half-inhibitory concentration (IC50) in test [1] was found to be 0.09 nM; in test [2] it was 0.2 nM; in test [3], 2.8 nM; in test [4], 7500 nM.
On to `Nc1ncccc1CN1CCOc2c(Cl)c(-c3cccc4ccccc34)cc3nc(OC[C@@]45CCCN4C[C@H](F)C5)nc1c23` [Example 62, 3-((8-chloro-2-(((2R,7aS)-2-fluorotetrahydro-1H-pyrrolizin-7a(5H)-yl)methoxy)-9-(naphthalen-1-yl)-5,6-dihydro-4H-[1,4]oxazepino[5,6,7-de]quinazolin-4-yl)methyl)pyridin-2-amine], for which the IC50 stood at 12 nM in test [1], 96 nM in test [2], 4900 nM in test [3] and 3400 nM in test [4].
In the case of `Cc1cc(N)nc(-c2c(Cl)c3c4c(nc(OC[C@@H]5CC[C@H]6COCCCN65)nc4c2F)N([C@H](C)c2cccnc2N)CCO3)c1C(F)(F)F` (atropisomer, axis not shown; (aS)) [Example 120a, 6-((R)-4-((R)-1-(2-aminopyridin-3-yl)ethyl)-8-chloro-10-fluoro-2-(((7S,9aS)-hexahydro-1H,3H-pyrrolo[2,1-c][1,4]oxazepin-7-yl)methoxy)-5,6-dihydro-4H-[1,4]oxazepino[5,6,7-de]quinazolin-9-yl)-4-methyl-5-(trifluoromethyl)pyridin-2-amine], the 50% inhibitory concentration (IC50) in test [1] amounted to 0.07 nM; in test [2], 0.2 nM; in test [3], 28 nM; in test [4] it was 2500 nM.
The like results for `Cc1cc(N)nc(-c2cc3ncnc4c3c(c2Cl)OCCN4[C@@H](C)c2cccnc2N)c1C(F)(F)F` [Example 18, (S)-6-(4-(1-(2-aminopyridin-3-yl)ethyl)-8-chloro-5,6-dihydro-4H-[1,4]oxazepino[5,6,7-de]quinazolin-9-yl)-4-methyl-5-(trifluoromethyl)pyridin-2-amine] were, in that order, 35 nM, 200 nM, 20000 nM and 20000 nM.
